Tested on: Mpl-expressing Ba/F3 cell line (human mpl gene)
Assay: Measurement of thrombopoietin (TPO) activity: viable cell count of Mpl-expressing Ba/F3 cell line (Cell Count Reagent SF, absorbance 450 nm)
Assay type: cell-based
Settings: for Concentration: concentration corresponding to the maximum TPO activity value; for TPO activity: maximum TPO activity value, ODt/ODs×100 relative to maximum reaction of human TPO, Mpl-expressing Ba/F3 cells cultured at 37° C. for one day, at the concentration given
Description: The TPO activities of the compounds of the invention obtained in the aforementioned examples were measured by the procedure described below, for evaluation of their thrombopoietic effects.
Establishment of Mpl-expressing Ba/F3 Cell Line
The human mpl gene was cloned from cDNAs of the human erythroleukemia cell line HEL by PCR, and was incorporated into pCOS1 to construct an expression vector. The expression vector was transfected into Ba/F3 cells by electroporation method, and an Mpl-expressing Ba/F3 clone was established.
Measurement of Thrombopoietin (TPO) Activity
The cytokine-eliminated Mpl-expressing Ba/F3 line was plated in a 96-well plate at 25,000 cells/well. DMSO solutions containing the compounds obtained in each of the examples were then prepared to different specified concentration ranges, and each solution was added to the Mpl-expressing Ba/F3 cell line (final DMSO concentration: ≦0.1%), and the cell were cultured at 37° C. for one day. Human TPO (by R&D Systems or Genzyme) was used as a positive control.
Each of the cultured Mpl-expressing Ba/F3 cell lines was subjected to absorbance measurement at a wavelength of 450 nm (reference wavelength: 620 nm), corresponding to the viable cell count, using Cell Count Reagent SF (by Nacalai Tesque Inc.). The TPO activity of each compound for the Mpl-expressing Ba/F3 cell line was determined based on the following formula. TPO activity (%)=ODt/ODs×100
ODs: Absorbance at maximum reaction of human TPO (wavelength: 450-620 nm).
ODt: Absorbance of test solution (wavelength: 450-620 nm).
Tables 1 and 2 show the maximum TPO activity values and the corresponding concentrations of each compound, as obtained by the test described above.

## NCCC[C@H](NC(=O)Cc1c[nH]c2ccccc12)C(=O)Nc1ccc(C(c2ccc(NC(=O)[C@H](CCCN)NC(=O)Cc3c[nH]c4ccccc34)cc2)c2ccc(NC(=O)[C@H](CCCN)NC(=O)Cc3c[nH]c4ccccc34)cc2)cc1.O=C(O)C(F)(F)F [Example 134, tris[4-[N-α-[2-(1H-indol-3-yl)acetyl]-L-ornithyl]aminophenyl]methane trifluoroacetate]
  Concentration: 50 µM
  TPO activity: 67.2%

## COc1ccc2[nH]c(C)c(CC(=O)N[C@@H](CCCN)C(=O)Nc3ccc(C(c4ccc(NC(=O)[C@H](CCCN)NC(=O)Cc5c(C)[nH]c6ccc(OC)cc56)cc4)c4ccc(NC(=O)[C@H](CCCN)NC(=O)Cc5c(C)[nH]c6ccc(OC)cc56)cc4)cc3)c2c1.O=C(O)C(F)(F)F [Example 135, tris[4-[N-α-[2-(5-methoxy-2-methyl-1H-indol-3-yl)acetyl]-L-ornithyl]aminophenyl]methane trifluoroacetate]
  Concentration: 50 µM
  TPO activity: 15.8%

## COc1ccc2c(CC(=O)N[C@H](CCCCN)C(=O)Nc3ccc(C(c4ccc(NC(=O)[C@@H](CCCCN)NC(=O)Cc5c(C)[nH]c6cc(OC)ccc56)cc4)c4ccc(NC(=O)[C@@H](CCCCN)NC(=O)Cc5c(C)[nH]c6cc(OC)ccc56)cc4)cc3)c(C)[nH]c2c1.Cl [Example 146, tris[4-[N-α-[2-(6-methoxy-2-methyl-1H-indol-3-yl)acetyl]-D-lysyl]aminophenyl]methane hydrochloride]
  Concentration: 25 µM
  TPO activity: 83.6%

## CCc1[nH]c2ccccc2c1CC(=O)N[C@H](CCCCN)C(=O)Nc1ccc(C(c2ccc(NC(=O)[C@@H](CCCCN)NC(=O)Cc3c(CC)[nH]c4ccccc34)cc2)c2ccc(NC(=O)[C@@H](CCCCN)NC(=O)Cc3c(CC)[nH]c4ccccc34)cc2)cc1.Cl [Example 148, tris[4-[N-α-[2-(2-ethyl-1H-indol-3-yl)acetyl]-D-lysyl]aminophenyl]methane hydrochloride]
  Concentration: 25 µM
  TPO activity: 73.6%

## Cl.NCCCC[C@@H](NC(=O)c1cc2cc(O)ccc2[nH]1)C(=O)Nc1ccc(C(c2ccc(NC(=O)[C@@H](CCCCN)NC(=O)c3cc4cc(O)ccc4[nH]3)cc2)c2ccc(NC(=O)[C@@H](CCCCN)NC(=O)c3cc4cc(O)ccc4[nH]3)cc2)cc1 [Example 151, tris[4-[N-α-(5-hydroxy-1H-indol-2-yl)carbonyl-D-lysyl]aminophenyl]methane hydrochloride]
  Concentration: 50 µM
  TPO activity: 90.8%

## Cl.NCCCC[C@@H](NC(=O)c1cccc2[nH]ccc12)C(=O)Nc1ccc(C(c2ccc(NC(=O)[C@@H](CCCCN)NC(=O)c3cccc4[nH]ccc34)cc2)c2ccc(NC(=O)[C@@H](CCCCN)NC(=O)c3cccc4[nH]ccc34)cc2)cc1 [Example 152, tris[4-[N-α-(1H-indol-4-yl)carbonyl-D-lysyl]aminophenyl]methane hydrochloride]
  Concentration: 25 µM
  TPO activity: 62.0%

## Cc1cccc2c(CC(=O)N[C@H](CCCCN)C(=O)Nc3ccc(C(c4ccc(NC(=O)[C@@H](CCCCN)NC(=O)Cc5c[nH]c6c(C)cccc56)cc4)c4ccc(NC(=O)[C@@H](CCCCN)NC(=O)Cc5c[nH]c6c(C)cccc56)cc4)cc3)c[nH]c12.Cl [Example 155, tris[4-[N-α-[2-(7-methyl-1H-indol-3-yl)acetyl]-D-lysyl]aminophenyl]methane hydrochloride]
  Concentration: 25 µM
  TPO activity: 44.3%

## Cl.NCCCC[C@@H](NC(=O)c1cnccn1)C(=O)Nc1ccc(C(c2ccc(NC(=O)[C@@H](CCCCN)NC(=O)c3cnccn3)cc2)c2ccc(NC(=O)[C@@H](CCCCN)NC(=O)c3cnccn3)cc2)cc1 [Example 157, tris[4-[N-α-(pyrazin-2-yl)carbonyl-D-lysyl]aminophenyl]methane hydrochloride]
  Concentration: 50 µM
  TPO activity: 36.1%

## Cl.NCCCC[C@@H](NC(=O)Cc1cccc(O)c1)C(=O)Nc1ccc(C(c2ccc(NC(=O)[C@@H](CCCCN)NC(=O)Cc3cccc(O)c3)cc2)c2ccc(NC(=O)[C@@H](CCCCN)NC(=O)Cc3cccc(O)c3)cc2)cc1 [Example 159, tris[4-[N-α-[2-(3-hydroxyphenyl)acetyl]-D-lysyl]aminophenyl]methane hydrochloride]
  Concentration: 25 µM
  TPO activity: 18.6%

## Cl.NCCCC[C@@H](NC(=O)[C@H](N)Cc1ccc(O)cc1)C(=O)Nc1ccc(C(c2ccc(NC(=O)[C@@H](CCCCN)NC(=O)[C@H](N)Cc3ccc(O)cc3)cc2)c2ccc(NC(=O)[C@@H](CCCCN)NC(=O)[C@H](N)Cc3ccc(O)cc3)cc2)cc1 [Example 160, tris[4-[N-α-(D-tyrosyl)-D-lysyl]aminophenyl]methane hydrochloride]
  Concentration: 100 µM
  TPO activity: 22.5%

## Cl.NCCCC[C@@H](NC(=O)[C@H](N)Cc1c[nH]c2ccccc12)C(=O)Nc1ccc(C(c2ccc(NC(=O)[C@@H](CCCCN)NC(=O)[C@H](N)Cc3c[nH]c4ccccc34)cc2)c2ccc(NC(=O)[C@@H](CCCCN)NC(=O)[C@H](N)Cc3c[nH]c4ccccc34)cc2)cc1 [Example 161, tris[4-[N-α-(D-tryptophyl)-D-lysyl]aminophenyl]methane hydrochloride]
  Concentration: 25 µM
  TPO activity: 65.6%

## Cl.NCCCC[C@@H](NC(=O)Cc1cccs1)C(=O)Nc1ccc(C(c2ccc(NC(=O)[C@@H](CCCCN)NC(=O)Cc3cccs3)cc2)c2ccc(NC(=O)[C@@H](CCCCN)NC(=O)Cc3cccs3)cc2)cc1 [Example 164, tris[4-[N-α-[2-(thiophen-2-yl)acetyl]-D-lysyl]aminophenyl]methane hydrochloride]
  Concentration: 25 µM
  TPO activity: 24.9%

## Cl.NCCCC[C@@H](NC(=O)Cc1ccccn1)C(=O)Nc1ccc(C(c2ccc(NC(=O)[C@@H](CCCCN)NC(=O)Cc3ccccn3)cc2)c2ccc(NC(=O)[C@@H](CCCCN)NC(=O)Cc3ccccn3)cc2)cc1 [Example 172, tris[4-[N-α-[2-(pyridin-2-yl)acetyl]-D-lysyl]aminophenyl]methane hydrochloride]
  Concentration: 100 µM
  TPO activity: 24.4%

## Cl.NCCCC[C@@H](NC(=O)Cc1ccncc1)C(=O)Nc1ccc(C(c2ccc(NC(=O)[C@@H](CCCCN)NC(=O)Cc3ccncc3)cc2)c2ccc(NC(=O)[C@@H](CCCCN)NC(=O)Cc3ccncc3)cc2)cc1 [Example 173, tris[4-[N-α-[2-(pyridin-4-yl)acetyl]-D-lysyl]aminophenyl]methane hydrochloride]
  Concentration: 100 µM
  TPO activity: 35.4%

## NCCCC[C@@H](NC(=O)c1cccc(O)c1)C(=O)Nc1ccc(C(c2ccc(NC(=O)[C@@H](CCCCN)NC(=O)c3cccc(O)c3)cc2)c2ccc(NC(=O)[C@@H](CCCCN)NC(=O)c3cccc(O)c3)cc2)cc1.O=C(O)C(F)(F)F [Example 186, tris[4-[N-α-(3-hydroxybenzoyl)-D-lysyl]aminophenyl]methane trifluoroacetate]
  Concentration: 25 µM
  TPO activity: 35.8%

## N[C@H](CCCCNC(=O)Cc1ccccc1)C(=O)Nc1ccc(C(c2ccc(NC(=O)[C@H](N)CCCCNC(=O)Cc3ccccc3)cc2)c2ccc(NC(=O)[C@H](N)CCCCNC(=O)Cc3ccccc3)cc2)cc1.O=C(O)C(F)(F)F [Example 187, tris[4-[N-ε-(2-phenylacetyl)-D-lysyl]aminophenyl]methane trifluoroacetate]
  Concentration: 25 µM
  TPO activity: 60.2%

## NCCCC[C@@H](NC(=O)Cc1ccc(O)c(O)c1)C(=O)Nc1ccc(C(c2ccc(NC(=O)[C@@H](CCCCN)NC(=O)Cc3ccc(O)c(O)c3)cc2)c2ccc(NC(=O)[C@@H](CCCCN)NC(=O)Cc3ccc(O)c(O)c3)cc2)cc1.O=C(O)C(F)(F)F [Example 188, tris[4-[N-α-[2-(3,4-dihydroxyphenyl)acetyl]-D-lysyl]aminophenyl]methane trifluoroacetate]
  Concentration: 100 µM
  TPO activity: 10.1%

## NCCCC[C@@H](NC(=O)c1cccc2cc(O)ccc12)C(=O)Nc1ccc(C(c2ccc(NC(=O)[C@@H](CCCCN)NC(=O)c3cccc4cc(O)ccc34)cc2)c2ccc(NC(=O)[C@@H](CCCCN)NC(=O)c3cccc4cc(O)ccc34)cc2)cc1.O=C(O)C(F)(F)F [Example 192, tris[4-[N-α-(6-hydroxynaphthalen-1-yl)carbonyl-D-lysyl]aminophenyl]methane trifluoroacetate]
  Concentration: 25 µM
  TPO activity: 71.3%

## NCCCC[C@H](NC(=O)Cc1ccccc1)C(=O)Nc1ccc(C(c2ccc(NC(=O)[C@H](CCCCN)NC(=O)Cc3ccccc3)cc2)c2ccc(NC(=O)[C@H](CCCCN)NC(=O)Cc3ccccc3)cc2)cc1.O=C(O)C(F)(F)F [Example 199, tris[4-[N-α-(2-phenylacetyl)-L-lysyl]aminophenyl]methane trifluoroacetate]
  Concentration: 12.5 µM
  TPO activity: 47.0%

— patent US6887890B2, “Compounds exhibiting thrombopoietin-like activities” (Chugai Seiyaku Kabushiki Kaisha, priority 2000, dated 2005)
